Reference: patent publication US10435431B2, “3,3 disubstituted 19-nor pregnane compounds, compositions, and uses thereof” (Sage Therapeutics, Inc., priority 2011, dated 2019)
pIC50: −log10 of the molar value.

Assays:
[1] = molecular target: T1, Recombinant α1β2γ2 GABAA Receptors (Homo sapiens, UniProt P14867+P47870); assay: Patch clamp electrophysiology of recombinant α1β2γ2 GABAA receptors, potentiation of GABA mediated currents; format: cell-based; settings: Ltk cells, GABA EC10=0.5 μM, whole cell patch clamp; for % potentiation at 100 nM: test article 100 nM; for % potentiation at 1000 nM: test article 1000 nM; for % potentiation at 10000 nM: test article 10000 nM
T1 construct: expressed in transfected cells; host or cells: Ltk cells
T1 sequence (P14867 28-456): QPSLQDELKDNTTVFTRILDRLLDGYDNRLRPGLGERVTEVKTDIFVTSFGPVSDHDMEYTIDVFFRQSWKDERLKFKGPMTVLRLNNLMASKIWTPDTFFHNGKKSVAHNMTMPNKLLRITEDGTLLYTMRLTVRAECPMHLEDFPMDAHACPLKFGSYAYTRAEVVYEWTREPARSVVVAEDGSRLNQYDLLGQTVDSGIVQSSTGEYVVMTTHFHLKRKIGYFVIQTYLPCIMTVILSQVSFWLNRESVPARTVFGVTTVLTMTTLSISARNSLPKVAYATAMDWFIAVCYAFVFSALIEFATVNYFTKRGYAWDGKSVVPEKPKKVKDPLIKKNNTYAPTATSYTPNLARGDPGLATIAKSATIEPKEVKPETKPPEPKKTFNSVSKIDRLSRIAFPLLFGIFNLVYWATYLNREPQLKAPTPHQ
T1 sequence (P47870 25-512 limits assumed): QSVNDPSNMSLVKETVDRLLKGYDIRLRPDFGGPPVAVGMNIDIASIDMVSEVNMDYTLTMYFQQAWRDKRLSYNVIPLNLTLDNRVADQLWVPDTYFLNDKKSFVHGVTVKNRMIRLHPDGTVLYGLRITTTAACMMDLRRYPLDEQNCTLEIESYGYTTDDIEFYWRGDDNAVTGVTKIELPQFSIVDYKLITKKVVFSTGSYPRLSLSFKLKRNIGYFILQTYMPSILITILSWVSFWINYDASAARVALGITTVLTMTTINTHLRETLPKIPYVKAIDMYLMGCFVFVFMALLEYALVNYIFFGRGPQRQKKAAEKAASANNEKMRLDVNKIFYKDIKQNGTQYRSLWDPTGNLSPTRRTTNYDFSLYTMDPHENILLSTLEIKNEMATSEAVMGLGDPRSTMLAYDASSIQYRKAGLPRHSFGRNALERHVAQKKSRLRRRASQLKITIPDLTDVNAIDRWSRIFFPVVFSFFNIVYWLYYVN
T1 sequence (P18507 40-475 partner): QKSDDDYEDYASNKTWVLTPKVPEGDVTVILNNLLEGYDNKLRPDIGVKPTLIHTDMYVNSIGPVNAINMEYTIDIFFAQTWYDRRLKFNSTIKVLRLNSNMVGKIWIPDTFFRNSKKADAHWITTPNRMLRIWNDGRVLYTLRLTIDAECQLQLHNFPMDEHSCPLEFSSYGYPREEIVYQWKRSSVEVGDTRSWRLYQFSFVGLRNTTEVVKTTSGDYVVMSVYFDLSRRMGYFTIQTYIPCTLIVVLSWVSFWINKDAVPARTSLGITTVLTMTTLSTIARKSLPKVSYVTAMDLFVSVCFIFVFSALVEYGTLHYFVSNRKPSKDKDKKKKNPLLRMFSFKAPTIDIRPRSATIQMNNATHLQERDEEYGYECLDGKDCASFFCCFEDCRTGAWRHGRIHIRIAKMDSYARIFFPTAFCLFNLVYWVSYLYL
Description: Patch Clamp Electrophysiology of Recombinant α1β2γ2 GABAA Receptors
Cellular electrophysiology is used to measure in vitro potency and efficacy of our GABAA receptor modulators in Ltk cells. Each compound is tested for its ability to affect GABA mediated currents at a submaximal agonist dose (GABA EC10=0.5 μM) in a whole cell patch clamp technique using a EPC-10, HEKA Electronics Amplifier and PatchMaster software. These experiments measure potency, efficacy (Emax), direct gating properties and acute desensitization. Test article is added at 0.1, 1.0 and 10 uM.

[2] = molecular target: [35S]-TBPS binding, rat brain cortical membranes; assay: Steroid inhibition of [35S]-TBPS binding; settings: 2 nM [35S]-TBPS, in the presence of 5 μM GABA
Description: Steroid Inhibition of TBPS Binding
TBPS binding assays using rat brain cortical membranes in the presence of 5 μM GABA has been described (Gee et al, J. Pharmacol. Exp. Ther. 1987, 241, 346-353; Hawkinson et al, Mol. Pharmacol. 1994, 46, 977-985).
Briefly, cortices are rapidly removed following decapitation of carbon dioxide-anesthetized Sprague-Dawley rats (200-250 g). The cortices are homogenized in 10 volumes of ice-cold 0.32 M sucrose using a glass/teflon homogenizer and centrifuged at 1500×g for 10 min at 4° C. The resultant supernatants are centrifuged at 10,000×g for 20 min at 4° C. to obtain the P2 pellets. The P2 pellets are resuspended in 200 mM NaCl/50 mM Na—K phosphate pH 7.4 buffer and centrifuged at 10,000×g for 10 min at 4° C. This ishing procedure is repeated twice and the pellets are resuspended in 10 volumes of buffer. Aliquots (100 μL) of the membrane suspensions are incubated with 2 nM [^35S]-TBPS and 5 μL aliquots of test drug dissolved in dimethyl sulfoxide (DMSO) (final 0.5%) in the presence of 5 μM GABA. The incubation is brought to a final volume of 1.0 mL with buffer. Nonspecific binding is determined in the presence of 2 μM unlabeled TBPS and ranged from 15 to 25%. Following a 90 min incubation at room temp, the assays are terminated by filtration through glass fiber filters (Schleicher and Schuell No. 32) using a cell harvester (Brandel) and rinsed three times with ice-cold buffer. Filter bound radioactivity is measured by liquid scintillation spectrometry. Non-linear curve fitting of the overall data for each drug averaged for each concentration is done using Prism (GraphPad). […] The concentration of test compound producing 50% inhibition (IC50) of specific binding and the maximal extent of inhibition (Imax) are determined for the individual experiments with the same model used for the overall data and then the means±SEM.s of the individual experiments are calculated.
Various compounds are or can be screened to determine their potential as modulators of [^35S]-TBPS binding in vitro. These assays are or can be performed in accordance with the above discussed procedures.

SMILES | % potentiation at 100 nM [1] [%] | % potentiation at 1000 nM [1] [%] | pIC50 [2] | % potentiation at 10000 nM [1] [%]
C[C@@]1(O)CC[C@H]2[C@H](CC[C@@H]3[C@@H]2CC[C@]2(C)[C@@H](C(=O)CO)CC[C@@H]32)C1 | 101 | 163 | 7.07 | –
C[C@@]1(O)CC[C@H]2[C@@H](CC[C@@H]3[C@@H]2CC[C@]2(C)[C@@H](C(=O)CO)CC[C@@H]32)C1 | – | 130 | 6.66 | 227
CC(=O)[C@H]1CC[C@H]2[C@@H]3CC[C@@H]4C[C@@](O)(C(F)F)CC[C@@H]4[C@H]3CC[C@]12C | – | – | 7.48 | –
COC[C@@]1(O)CC[C@H]2[C@@H](CC[C@@H]3[C@@H]2CC[C@]2(C)[C@@H](C(=O)CO)CC[C@@H]32)C1 | – | – | 7.03 | –
COC[C@@]1(O)CC[C@H]2[C@H](CC[C@@H]3[C@@H]2CC[C@]2(C)[C@@H](C(=O)CO)CC[C@@H]32)C1 | – | – | 6.77 | –
C[C@]12CC[C@H]3[C@@H](CC[C@H]4C[C@@](O)(C(F)F)CC[C@@H]43)[C@@H]1CC[C@@H]2C(=O)CO | – | 0 | < 5.00 | 100
COC[C@@]1(O)CC[C@H]2[C@H](CC[C@@H]3[C@@H]2CC[C@]2(C)[C@@H](C(C)=O)CC[C@@H]32)C1 | – | – | 7.39 | –
CC(=O)[C@H]1CC[C@H]2[C@@H]3CC[C@@H]4C[C@](O)(CF)CC[C@@H]4[C@H]3CC[C@]12C | – | – | 7.00 | –
CC(=O)[C@H]1CC[C@H]2[C@@H]3CC[C@H]4C[C@](C)(O)CC[C@@H]4[C@H]3CC[C@]12C | 80 | 157 | 7.03 | 270
